{"source": "patent US20250115595A1", "about": "“INHIBITORS OF HYPOXIA-INDUCIBLE FACTORS” (The Johns Hopkins University, priority 2021, published 2025)", "key": {"[1]": {"test_system": "Hep3B human HCC tumor xenografts", "experiment": "Hep3B tumor xenograft in nude mice", "assay_type": "in vivo, mouse", "description": "Effects of 32-134D on Hep3B human HCC tumor xenografts. To analyze the effect of HIF inhibitor 32-134D on tumor xenograft growth, Hep3B cells were injected subcutaneously into immunodeficient mice and when tumors reached a volume of 150 mm3 (designated treatment day 1), the mice were treated with vehicle or 32-134D by daily intraperitoneal injection. […] Treatment with 32-134D for 17 days had no effect on mouse body weight (FIG. 6C), appearance or behavior. We treated additional mice with 32-134D and confirmed inhibition of tumor growth without effects on body weight (FIGS. 7A-C).\nProtocols were approved by the Johns Hopkins University Animal Care and Use Committee and used in accordance with the NIH Guide for the Care and Use of Laboratory Animals (National Research Council, 2011). Female nude mice (NCI Athymic NCr-nu/nu) and male C57L/J mice were purchased from Charles River and The Jackson Laboratory, respectively. Hep3B (8×106) and Hepa1-6 (1×107) cells were implanted subcutaneously in 6- to 8-week-old mice, and tumor volume was calculated: V=abc×0.52. For Hep3B tumor studies, once tumors reached 100-150 mm3, mice were randomized into groups to receive daily intraperitoneal injection of either vehicle or 32-134D. For Hepa1-6 tumors, mice were randomized to receive treatment once tumors reached a size of 50-100 mm3. Tumors were harvested 4 hours after the last treatment.\nTumors were fixed in 10% formalin in phosphate buffer for 24 hours and placed in PBS the following day for paraffin embedding and sectioning. Anti-CD31 immunohistochemical staining, hematoxylin and eosin counterstaining, and whole slide scanning were performed by NDB Bio […].\nHuman (EPO, SCF, SDF1a, VEGFA) and mouse (Cxcl1, Cxcl2, Cxcl9, Cxcl10, Il6, Il10, IL22, Vegfa) protein concentrations in tumor homogenates were determined using ELISA kits (Table 4) from Novus Biologicals. Optical density was obtained at 450 nm (corrected for readings at 570 nm) using the VICTOR Nivo plate reader (PerkinElmer). Sample protein concentration was calculated by linear regression from a standard curve."}, "[2]": {"test_system": "HIF-regulated vasoactive mediators", "experiment": "mRNA expression in hypoxic D120 hiPSC-derived retinal organoids", "assay_type": "cell-based, human", "settings": "1% O2, 12 hours", "description": "To assess the therapeutic potential of 32-134D for diabetic patients, human induced pluripotent stem cell (hiPSC)-derived 3-dimensional (3D) retinal organoids were treated with 32-134D. It has been previously reported that hiPSC-derived 3D retinal organoids cultured under hypoxic conditions (1% O2) behave similar to ischemic human retinal tissue with increased accumulation of both HIF-1α and HIF-2α (J. Zhang et al., J Clin Invest 131 (2021)). By 120 days of differentiation (D120), the inner and outer retinal layers are clearly defined (FIGS. 32A and 32B) and contain the precursors of the major retinal cell types, including outer retina photoreceptors (expressing recoverin), few newly differentiating bipolar cell precursors (lacking expression of recoverin and Pax6), amacrine cells (expressing high levels of Pax6), as well as Müller cells (expressing CRALBP; FIGS. 32C and 32D). […]\nReverse transcription and quantitative real-time PCR: Total RNA was isolated from cultured cells or retinas with PureLink™ RNA Mini Kit (Invitrogen #12183025), and cDNA was prepared with MuLV Reverse Transcriptase (Applied Biosystems). Quantitative real-time PCR was performed with Power SYBR Green PCR Master Mix (Applied Biosystems) and MyiQ Real-Time PCR Detection System (Bio-Rad). […]"}, "[3]": {"test_system": "C57BL/6 mice", "experiment": "Retinal safety after intraocular injection (ERG, histology, RGC count)", "assay_type": "in vivo, mouse", "description": "To reduce the risk of systemic side effects while optimizing the delivery of drugs to retinal tissue, therapies for ocular vascular disease are often administered by intravitreal injection. Therefore, it was assessed whether […] causes retinal toxicity following intraocular administration. To this end, ERGs up to 5 weeks were examined following a single intraocular injection of increasing doses (70, 140, 210, and 350 ng) of 32-134D.\nTo assess whether a higher dose of 32-134D could facilitate less frequent administration, the safety of higher doses of intraocular administration of 32-134D was assessed. To this end, ERGs up to 2 weeks following a single intraocular injection of high doses (500 and 1,000 ng) of 32-134D were examined.\nIntraocular injections: Intravitreal injections were performed with a PLI-100A Pico-liter Microinjector (Warner Instruments, Harvard Bioscience) using pulled-glass micropipettes. Each micropipette was calibrated to deliver a 1 μl volume on depression of a foot switch. The mice were anesthetized with a ketamine (100 mg/kg) and xylazine (5 mg/kg) mixture, and under a dissecting microscope, the sharpened tip of the micropipette was passed through the sclera just posterior to the limbus into the vitreous cavity and the foot switch was depressed, which caused fluid to penetrate into the vitreous space. Test compound was injected into the vitreous cavity in OIR and STZ mice for vascular permeability test, retinal vasculature and lysates for WB and qPCR analysis.\nFlash scotopic ERGs: All procedures were performed under dim red light. Mice were dark adapted overnight, anesthetized with ketamine (50 mg/kg) and xylazine (5 mg/kg) and pupils were dilated with a topical drop of tropicamide (1%). Scotopic ERG responses were measured using the Celeris ERG stimulator (Diagnosys, Lowell, MA) at flash intensities of 0.025, 0.25, 2.5, 7.96, and 79.06 cd/s/m2. ERGs were measured simultaneously from both eyes with a ground electrode placed into the forehead between the eyes and a reference electrode into the hip."}}, "data": [{"compound": "Brc1ccc2c(-c3csc(-c4c[nH]c5c(Br)cccc45)n3)c[nH]c2c1", "note": "[Compound 32-134D, 4-(6-bromo-1H-indol-3-yl)-2-(7-bromo-1H-indol-3-yl)thiazole]", "values": [{"measurement": "tumor xenograft growth", "setting": "[1]; 20 mg/kg daily intraperitoneal", "result": "Partial growth inhibition"}, {"measurement": "tumor xenograft growth", "setting": "[1]; 40 mg/kg daily intraperitoneal", "result": "maximal growth inhibition"}, {"measurement": "mass of tumors harvested", "setting": "[1]; 40 mg/kg/day", "result": "significantly decreased"}, {"measurement": "tumor xenograft growth", "setting": "[1]; 80 mg/kg daily intraperitoneal", "result": "maximal growth inhibition"}, {"measurement": "blood vessel area in tumors (CD31 immunohistochemistry)", "setting": "[1]; mouse, in vivo", "result": "markedly decreased"}, {"measurement": "mouse body weight", "setting": "[1]; treatment for 17 days", "result": "no effect"}, {"measurement": "tumor mRNAs encoding SCF, PGF, EPO, CD73, PDL1, VEGFA, SDF1", "setting": "[1]; tumor RNA, RT-qPCR", "result": "significant decrease"}, {"measurement": "EPO, SCF, SDF1 and VEGFA protein in tumors", "setting": "[1]; whole tumor lysates, ELISA", "result": "significantly decreased expression"}, {"measurement": "expression of HIF-regulated vasoactive mediators (Vegf, Angpt14 mRNA)", "setting": "[2]", "result": "effectively prevented"}, {"measurement": "retinal histology including GCL", "setting": "[3]; 35 days after intraocular injection of up to 350 ng", "result": "normal histology"}, {"measurement": "number of RGCs on retinal flat mounts", "setting": "[3]; highest doses tested (210 or 350 ng), 35 days", "result": "unaffected"}, {"measurement": "ERG evidence of retina toxicity", "setting": "[3]; single intraocular injection 70, 140, 210, 350 ng, up to 5 weeks", "result": "no ERG evidence of retina toxicity"}, {"measurement": "ERG evidence of retina toxicity", "setting": "[3]; single intraocular injection 500 and 1,000 ng, up to 2 weeks", "result": "no ERG evidence of retina toxicity"}]}]}
